Results taken from patent US12503719B2, “Metabolomic characterization of microorganisms” (priority 2019, dated 2025).
In brackets after ≈: the same amount, converted by molar mass.

What was measured:
C. albicans = settings: published CLSI MIC used as test concentration; antifungals tested for C. albicans; cited from earlier work
E. coli [1] = test: MAST: succinate production after 4 h incubation with antimicrobial; type: cell-based, Escherichia coli; settings: AMP and SXT resistant E. coli strain, antibiotics at MIC
From the text: All chemicals were obtained from Sigma-Aldrich (St. Louis, Mo. USA), VWR (Radnor, Pa. USA), or Fisher Scientific (Waltham, Mass. USA) unless otherwise specified. Clinical isolates used in this study were obtained from bloodstream infected patients. All strains were first identified and tested for antibiotic susceptibility using a clinical laboratory testing pipeline (plating on selective medium for single colony isolation, Gram staining, MALDI-TOF-MS species identification, and sub-culturing for purity and inoculation onto VITEK 2 (bioMerieux) antimicrobial susceptibility panels), and subsequently frozen as cryostocks. With the exception of S. pneumoniae, all strains were routinely grown in Mueller Hinton medium (BD Difco, Mississauga, ON, Canada). […] Supernatant was then diluted 1:10 with 50% LC-MS grade methanol and analyzed using UHPLC-MS. […]
To assess MAST as a potential clinical tool, three patient isolates for each target pathogen (2 each for S. aureus and P. aeruginosa) were analyzed. […] Both bactericidal (penicillins, cephalosporins, carbapenems, glycopeptides, aminoglycosides and fluoroquinolones) and bacteriostatic (macrolides, tetracyclines, and trimethoprim-sulfamethoxazole) antibiotic classes were evaluated.

[2] = published CLSI MIC used as test concentration; species not given; cited from earlier work
E. coli [3] = settings: published CLSI MIC used as test concentration; cited from earlier work
K. pneumoniae = settings: published CLSI MIC used as test concentration; cited from earlier work
S. pneumoniae = settings: published CLSI MIC used as test concentration; cited from earlier work
S. aureus = settings: published CLSI MIC used as test concentration; cited from earlier work
KP = test: MAST: hypoxanthine production after 4 h incubation with antimicrobial; type: cell-based, Klebsiella pneumoniae
From the text: All chemicals were obtained from Sigma-Aldrich (St. Louis, Mo. USA), VWR (Radnor, Pa. USA), or Fisher Scientific (Waltham, Mass. USA) unless otherwise specified. Clinical isolates used in this study were obtained from bloodstream infected patients. All strains were first identified and tested for antibiotic susceptibility using a clinical laboratory testing pipeline (plating on selective medium for single colony isolation, Gram staining, MALDI-TOF-MS species identification, and sub-culturing for purity and inoculation onto VITEK 2 (bioMerieux) antimicrobial susceptibility panels), and subsequently frozen as cryostocks. With the exception of S. pneumoniae, all strains were routinely grown in Mueller Hinton medium (BD Difco, Mississauga, ON, Canada). S. pneumoniae isolates were first revived on trypticase soy agar plates containing sheep blood (BD BBL, Mississauga, ON, Canada) and then sub-cultured into Mueller Hinton medium supplemented with catalase (1000 U/mL). For biomarker discovery and validation of biomarkers using MPAs, exponential phase cultures were used to seed 96 well culture plates (Corning, N.Y., N.Y. USA) containing Mueller Hinton medium with 10% donated human blood to a 0.5 McFarland (OD600˜0.07 or ˜1.5×10^8 CFU/mL). […] Supernatant was then diluted 1:10 with 50% LC-MS grade methanol and analyzed using UHPLC-MS. […]

P. aeruginosa = settings: published CLSI MIC used as test concentration; cited from earlier work
E. faecalis = settings: published CLSI MIC used as test concentration; cited from earlier work

Nc1nc(=O)[nH]cc1F [5FC, 5-flucytosine]
minimum inhibitory concentrations (C. albicans): 0.5 µg/mL (≈ 3.87 µM)

C[C@@H]1[C@H](O)[C@@H](C)/C=C/C=C/C=C/C=C/C=C/C=C/C=C/[C@H](O[C@@H]2O[C@H](C)[C@@H](O)[C@H](N)[C@@H]2O)C[C@@H]2O[C@](O)(C[C@@H](O)C[C@@H](O)[C@H](O)CC[C@@H](O)C[C@@H](O)CC(=O)O[C@H]1C)C[C@H](O)[C@H]2C(=O)O [AMB, amphotericin B]
minimum inhibitory concentrations (C. albicans): 2 µg/mL (≈ 2.16 µM)

CC1(C)S[C@@H]2[C@H](NC(=O)[C@H](N)c3ccccc3)C(=O)N2[C@H]1C(=O)O [AMP, ampicillin]
succinate production in presence of antibiotic versus absence of antibiotics (E. coli [1]): comparable
minimum inhibitory concentrations [2]: 8 µg/mL (≈ 22.9 µM)

CC(C)(O/N=C(\C(=O)N[C@@H]1C(=O)N2C(C(=O)[O-])=C(C[n+]3ccccc3)CS[C@H]12)c1csc(N)n1)C(=O)O [CAZ, ceftazidime]
minimum inhibitory concentrations [2]: 8 µg/mL (≈ 14.6 µM)

Cc1nnc(SCC2=C(C(=O)O)N3C(=O)[C@@H](NC(=O)Cn4cnnn4)[C@H]3SC2)s1 [CFX, cefazolin]
minimum inhibitory concentrations [2]: 4 µg/mL (≈ 8.8 µM)

CO/N=C(\C(=O)N[C@@H]1C(=O)N2C(C(=O)O)=C(CSc3nc(=O)c(=O)[nH]n3C)CS[C@H]12)c1csc(N)n1 [CRO, Ceftriaxone]
minimum inhibitory concentrations (E. coli [3]): 1 µg/mL (≈ 1.8 µM)
minimum inhibitory concentrations (K. pneumoniae): 1 µg/mL (≈ 1.8 µM)
minimum inhibitory concentrations (S. pneumoniae): 0.5 µg/mL (≈ 0.902 µM)

CC[C@H]1OC(=O)[C@H](C)[C@@H](O[C@H]2C[C@@](C)(OC)[C@@H](O)[C@H](C)O2)[C@H](C)[C@@H](O[C@@H]2O[C@H](C)C[C@H](N(C)C)[C@H]2O)[C@](C)(O)C[C@@H](C)C(=O)[C@H](C)[C@@H](O)[C@]1(C)O [ERY, erythromycin]
minimum inhibitory concentrations (S. aureus): 0.5 µg/mL (≈ 0.681 µM)
minimum inhibitory concentrations (S. pneumoniae): 0.25 µg/mL (≈ 0.341 µM)

OC(Cn1cncn1)(Cn1cncn1)c1ccc(F)cc1F [FLC, fluconozole]
minimum inhibitory concentrations (C. albicans): 2 µg/mL (≈ 6.53 µM)

C[C@@H](O)[C@H]1C(=O)N2C(C(=O)O)=C(S[C@@H]3CN[C@H](C(=O)N(C)C)C3)[C@H](C)[C@H]12 [MEM, meropenem]
hypoxanthine production (KP; drug sensitive strains, range of meropenem concentrations): incremental reduction in hypoxanthine production proportional to meropenem concentrations
hypoxanthine production (KP; resistant strains, clinically-relevant antibiotic concentrations): remain unaffected
minimum inhibitory concentrations (P. aeruginosa): 2 µg/mL (≈ 5.22 µM)
minimum inhibitory concentrations (E. coli [3]): 1 µg/mL (≈ 2.61 µM)
minimum inhibitory concentrations (K. pneumoniae): 1 µg/mL (≈ 2.61 µM)
minimum inhibitory concentrations (S. pneumoniae): 0.25 µg/mL (≈ 0.652 µM)

Cc1onc(-c2ccccc2)c1C(=O)N[C@@H]1C(=O)N2[C@@H]1SC(C)(C)[C@@H]2C(=O)O [OXA, oxacillin]
minimum inhibitory concentrations [2]: 2 µg/mL (≈ 4.98 µM)

CN[C@H](CC(C)C)C(=O)N[C@H]1C(=O)N[C@@H](CC(N)=O)C(=O)N[C@H]2C(=O)N[C@H]3C(=O)N[C@H](C(=O)N[C@H](C(=O)O)c4cc(O)cc(O)c4-c4cc3ccc4O)[C@H](O)c3ccc(c(Cl)c3)Oc3cc2cc(c3O[C@@H]2O[C@H](CO)[C@@H](O)[C@H](O)[C@H]2O[C@H]2C[C@](C)(N)[C@H](O)[C@H](C)O2)Oc2ccc(cc2Cl)[C@H]1O [VAN, vancomycin]
minimum inhibitory concentrations (E. faecalis): 4 µg/mL (≈ 2.76 µM)
minimum inhibitory concentrations (S. aureus): 2 µg/mL (≈ 1.38 µM)
minimum inhibitory concentrations (S. pneumoniae): 1 µg/mL (≈ 0.69 µM)

gentamicin
minimum inhibitory concentrations (E. faecalis): 500 µg/mL
minimum inhibitory concentrations [2]: 4 µg/mL

penicillin
minimum inhibitory concentrations [2]: 0.06 µg/mL
